Laboratory results from US10363239B2, “Method for inhibiting growth of cancer cells” (Pain Therapeutics, Inc., priority 2013, dated 2019).
Like-named read-outs stand apart in the source and are kept apart here.

Assays:
[1] = biological target: FLNA pentapeptide of SEQ ID NO: 1 (Bn-VAKGL) (Homo sapiens, UniProt P21333); assay: FITC-NLX-based FLNA screening assay (inhibition of FITC-naloxone binding to Bn-VAKGL on streptavidin plates); conditions: 10 nM FITC-NLX
[2] = test system: mu opiate receptor (MOR); assay: MOR agonist activity using [35S]GTPγS binding assay in striatal membranes; format: biochemical; conditions: for MOR agonist activity ([35S]GTPγS binding), FLNA-Binding Compound as Agonist 1 μM + BFNA: 1 μM compound + 1 μM β-funaltrexamine
Method in brief: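 Striatal membranes (200 μg) were preincubated 5 min at 30 °C in HEPES pH 7.5 with 100 mM NaCl, 1 mM MgCl2 and 0.5 nM [35S]GTPγS, then 5 min more with 0.1–10 μM compound. Gαo was immunoprecipitated and bound radioactivity counted by scintillation.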

[3] = read-out: Percent Binding Inhibition, FLNA-binding compound 0.01 μM
[4] = read-out: Percent Binding Inhibition, FLNA-binding compound 0.1 μM
[5] = read-out: Percent Binding Inhibition, FLNA-binding compound 1 μM
[6] = Series B, 0.1 μM compound, relative to DAMGO
[7] = Series B, 0.1 μM compound, [35S]GTPγS binding to Gαo, striatal membranes
[8] = Series B, 1 μM compound + 1 μM β-FNA
[9] = Series B, 1 μM compound + β-FNA, relative to DAMGO + BFNA
[10] = Series B, 1 μM compound, relative to DAMGO
[11] = Series B, 1 μM compound, [35S]GTPγS binding to Gαo, striatal membranes
[12] = FLNA-binding compound 0.01 μM, read-out: Percent Binding Inhibition
[13] = FLNA-binding compound 0.1 μM, read-out: Percent Binding Inhibition
[14] = FLNA-binding compound 1 μM, read-out: Percent Binding Inhibition
[15] = 0.1 μM compound relative to DAMGO
[16] = 1 μM compound + BFNA relative to DAMGO + BFNA
[17] = 1 μM compound relative to DAMGO
[18] = Series C-1, 0.1 μM compound, relative to DAMGO
[19] = Series C-1, 0.1 μM compound, [35S]GTPγS binding to Gαo, striatal membranes
[20] = Series C-1, 1 μM compound + 1 μM β-FNA
[21] = Series C-1, 1 μM compound + β-FNA, relative to DAMGO + BFNA
[22] = Series C-1, 1 μM compound, relative to DAMGO
[23] = Series C-1, 1 μM compound, [35S]GTPγS binding to Gαo, striatal membranes

| Compound | inhibition at 0.01 µM [1, 3] | inhibition at 0.1 µM [1, 4] | inhibition at 1 µM [1, 5] | % DAMGO (0.1 μM) [2, 6] | MOR agonist activity, percent [35S]GTPγS binding at the stated compound concentration [2, 7] | MOR agonist activity, percent [35S]GTPγS binding at the stated compound concentration [2, 8] | % DAMGO + BFNA [2, 9] | % DAMGO (1 μM) [2, 10] | MOR agonist activity, percent [35S]GTPγS binding at the stated compound concentration [2, 11] | inhibition at 0.01 µM [1, 12] | inhibition at 0.1 µM [1, 13] | inhibition at 1 µM [1, 14] | other results |
| --- | --- | --- | --- | --- | --- | --- | --- | --- | --- | --- | --- | --- | --- |
| CCOc1ccc(C(=O)CC2c3c(cc4c(c3OC)OCO4)CC[N+]2(C)C)cc1F (stereo not drawn) [Compound B0020] | 38.1% | 45.5% | 50.6% | 30.1% | 51.6% | 24.9% | 47.8% | 68.0% | 181.6% |  |  |  |  |
| COCOc1ccc(CCC(=O)CC2c3c(cc4c(c3OC)OCO4)CC[N+]2(C)C)cc1 (stereo not drawn) [Compound B0040] | 40% | 53.1% | 57.1% | 93.2% | 146.0% | 55.3% | 169.6% | 105.1% | 243.3% |  |  |  |  |
| CC1CCCC(OCC(O)CN2CC(C)OC(C)C2)C1 (stereo not drawn) [Compound A0021] |  |  |  |  |  |  |  |  |  | 36.8% | 43.4% | 49.5% | MOR agonist activity ([35S]GTPγS binding), FLNA-Binding Compound as Agonist 0.1 μM ([2]; 0.1 μM compound): 133.3%; % DAMGO (0.1 μM) [2, 15]: 79.8%; MOR agonist activity ([35S]GTPγS binding), FLNA-Binding Compound as Agonist 1 μM ([2]; 1 μM compound): 275.3%; MOR agonist activity ([35S]GTPγS binding), FLNA-Binding Compound as Agonist 1 μM + BFNA [2]: 12.1%; % DAMGO + BFNA [2, 16]: 34.9%; % DAMGO (1 μM) [2, 17]: 112.4% |
| O=S(=O)(c1ccc(Br)c(C(F)(F)F)c1)N1CCC2(CC1)OCCN2S(=O)(=O)c1ccc(Br)c(C(F)(F)F)c1 [Compound C0077] | 45.7% | 47.7% | 51% |  |  |  |  |  |  |  |  |  | % DAMGO (0.1 μM) [2, 18]: 109.5%; Concentration of FLNA-Binding Compound as Agonist 0.1 μM [2, 19]: 192.7%; Concentration of FLNA-Binding Compound as Agonist 1 μM + BFNA [2, 20]: 136.7%; % DAMGO + BFNA [2, 21]: 621.4%; % DAMGO (1 μM) [2, 22]: 104.9%; Concentration of FLNA-Binding Compound as Agonist 1 μM [2, 23]: 265.4% |
| CC1CCC(C(C)C)C(OCC(O)CN2CCSC2)C1 (stereo not drawn) [Compound A0002] |  |  |  |  |  |  |  |  |  | 38.7% | 43.7% | 49.9% | MOR agonist activity ([35S]GTPγS binding), FLNA-Binding Compound as Agonist 0.1 μM ([2]; 0.1 μM compound): 155.6%; % DAMGO (0.1 μM) [2, 15]: 104.1%; MOR agonist activity ([35S]GTPγS binding), FLNA-Binding Compound as Agonist 1 μM ([2]; 1 μM compound): 199.4%; MOR agonist activity ([35S]GTPγS binding), FLNA-Binding Compound as Agonist 1 μM + BFNA [2]: 6.5%; % DAMGO + BFNA [2, 16]: 24.5%; % DAMGO (1 μM) [2, 17]: 86.6% |
| COc1ccc(CCC(=O)CC2c3c(cc4c(c3OC)OCO4)CC[N+]2(C)C)cc1 (stereo not drawn) [Compound B0016] | 27.1% | 33.7% | 41.9% | 99.2% | 167.7% | 72.2% | 109.4% | 79.9% | 213.6% |  |  |  |  |
| CC(=O)c1ccc(S(=O)(=O)N2CCOC23CCN(CC(=O)O)CC3)cc1 [Compound C0100M] |  |  |  |  |  |  |  |  |  | 52.2% | 58.2% | 64.5% | % DAMGO (0.1 μM) ([2]; Series C-2, 0.1 μM compound, relative to DAMGO): 103.6%; MOR agonist activity, percent [35S]GTPγS binding at the stated compound concentration ([2]; Series C-2, 0.1 μM compound, [35S]GTPγS binding to Gαo, striatal membranes): 173.6%; MOR agonist activity, percent [35S]GTPγS binding at the stated compound concentration ([2]; Series C-2, 1 μM compound + 1 μM β-FNA): 195.6%; % DAMGO + BFNA ([2]; Series C-2, 1 μM compound + β-FNA, relative to DAMGO + BFNA): 411.8%; % DAMGO (1 μM) ([2]; Series C-2, 1 μM compound, relative to DAMGO): 110.6%; MOR agonist activity, percent [35S]GTPγS binding at the stated compound concentration ([2]; Series C-2, 1 μM compound, [35S]GTPγS binding to Gαo, striatal membranes): 245.9% |
| O=C(OCc1ccccc1)c1ccc(S(=O)(=O)N2CCC3(CC2)OCCN3S(=O)(=O)c2ccc(C(=O)OCc3ccccc3)cc2)cc1 [Compound C0042] |  |  |  |  |  |  |  |  |  | 42.4% | 49.7% | 56.1% | % DAMGO (0.1 μM) [2, 18]: 98.9%; Concentration of FLNA-Binding Compound as Agonist 0.1 μM [2, 19]: 167.1%; Concentration of FLNA-Binding Compound as Agonist 1 μM + BFNA [2, 20]: 110.6%; % DAMGO + BFNA [2, 21]: 666.3%; % DAMGO (1 μM) [2, 22]: 119.2%; Concentration of FLNA-Binding Compound as Agonist 1 μM [2, 23]: 260.9% |
